Measurements as given in patent US20260007756A1, “COMPOUND AND USE THEREOF” (COHERENT BIOPHARMA (SUZHOU) LIMITED, priority 2022, published 2026).

Columns and labels:
[1] = Single-dose PK assessment, tumor concentration in HT-29 xenograft mice; type: in vivo, BALB/c nude male mouse; details: 2 mg/kg CR20274 single tail vein injection, 5 min
Solubility study in PBS = type: physicochemical; details: aqueous buffer, thermodynamic from solid; PBS (pH 7.2 to 7.4); read-out: Solubility, concentration
Method: The mixture was vortexed for 2 min until the solid was dissolved. The solubility was calculated as: C=m/V, C: concentration, m: sample weight, V: PBS total volume.

[2] = system: human prostate cancer C4-2 cell subcutaneous xenograft tumor; experiment: Pharmacodynamic assessment, C4-2 xenograft model; type: in vivo, NCG mouse; details: 4 mg/kg i.v biw×3, day 23 after grouping
Excerpt: Objective: Pre-clinical assessment of the efficacy of compounds for treating NCG mouse model with C4-2 cell subcutaneous xenograft tumor (overexpressing PSMA).
Procedures: C4-2 cells were subcutaneously grafted at the right back of the mice, and the mice were randomized when the mean tumor volume reached 100-150 mm^3. After the administration, the routine monitoring included the effect on tumor growth and the effect of treatment on the normal behavior of the animals, specifically the activity, food and water intake, weight gain or loss, the eyes, the hair, and other abnormal conditions. Clinical symptoms observed during the study were recorded in the raw data. After the administration was started, the body weight and tumor size of the mice were measured periodically. The tumor volume was calculated using the following formula: V=1/2×(a×b^2), where a and b denote the long diameter and short diameter of the tumor, respectively.

[3] = system: human prostate cancer 22RV1 cell subcutaneous xenograft tumor; experiment: Pharmacodynamic assessment, 22RV1 xenograft model; type: in vivo; details: 4 mg/kg iv biw×3, day 31 after grouping
Excerpt: Objective: Pre-clinical pharmacodynamic study of compounds for treating BALB/c nude mouse model with 22RV1 cell subcutaneous xenograft tumor (overexpressing PSMA).
(§1) Procedures: 22RV1 tumor mass was grafted subcutaneously at the right back of the mice, and the mice were randomized after the mean tumor volume was 150 mm^3. After administration, the animals were monitored daily for health conditions and death, and the routine examinations included observation of the effect on tumor growth and the effect of the treatment on the daily performance of the animals, such as behavioral activities, food and water intake, weight changes (measured once every other day), appearance, or other abnormal conditions. Whether the tumor growth was inhibited or delayed or the tumor was cured was also observed. The tumor volume was measured periodically. The tumor volume was calculated using the following formula: V=1/2×(a×b^2), where a and b denote the long diameter and short diameter of the tumor, respectively.

[4] = system: human breast cancer MDA-MB-231 cell subcutaneous xenograft; experiment: Pharmacodynamic assessment, MDA-MB-231 xenograft model; type: in vivo; details: 4 mg/kg iv biw×3
Excerpt: Objective: Pre-clinical pharmacodynamic study of test compounds CR20274, CR20282, and CR20285 in BALB/c nude mouse model with human breast cancer MDA-MB-231 cell subcutaneous xenograft.
as §1, with “MDA-MB-231” for “22RV1”, “axilla” for “back”, “200” for “150”, “respectively. The calculation formula for the tumor growth inhibition, TGI (%), is TGI %=(1−T/C)×100% (T and C are the mean tumor volume of the treatment group and control group, respectively, at a particular time point).” for “respectively.”

[5] = Single-dose PK assessment, tumor concentration in HT-29 xenograft mice; type: in vivo, BALB/c nude male mouse; details: 2 mg/kg CR20274 single tail vein injection
Method: Objective: Single-dose PK assessment of compounds CR20214 and CR20274 in BALB/c nude male mouse model with human colorectal cancer HT-29 cell subcutaneous xenograft.
Procedures: HT-29 cells were grafted subcutaneously on the right back of the mice (purchased from GemPharmatech Co., Ltd., weighing 20-25 g, male, aged 45-60 days), and the mice were randomized when the mean tumor volume reached about 300 mm^3. 6.25 mg/kg of CR20214 and 2 mg/kg of CR20274 were given to the HT-29 tumor-bearing mice in a single dose by tail vein injection. The tumors were taken at […], 0.25, 0.5, 1, 2, 4, 8, 24, 48 and 72 h post-dose, ground, and homogenized. The homogenate was extracted, and after centrifugation, the supernatants were injected into a triple quadrupole tandem mass spectrometer to determine the CR20274 content in the tumors.

NCI-H460 = experiment: Expansion inhibition of tumor cells (Example 7, CCK-8); type: cell-based; details: Homo sapiens, NCI-H460 (no detectable FOLR1 or PSMA expression), 72 h
Method: (§2) Samples were serially diluted with medium (serially 5-fold diluted from 10 μM) to 9 concentrations. […] Negative and blank controls were set.
(§3) A CCK-8 developing solution was added at 10 μL/well (10% of the liquid volume in the wells). The plates were incubated at 37° C. for a proper time (the OD value was controlled within the range of 1.0-2.5 as possible). The plate covers were removed, and the 96-well plates were loaded on a microplate reader (Molecular Devices SpectraMax iD5) to read the measurement at 450 nm.

PC-3 = experiment: as above; type: cell-based; details: Homo sapiens, PC-3 (no detectable FOLR1 or PSMA expression), 72 h
Method: as §2, §3

A549 = experiment: as above; type: cell-based; details: Homo sapiens, A549 (no detectable FOLR1 or PSMA expression), 72 h
Method: as §2, §3

HepG2 = experiment: as above; type: cell-based; details: Homo sapiens, HepG2 (no detectable FOLR1 or PSMA expression), 72 h
Method: as §2, §3

Concentration of CR20274 in tumors (C2) [1]: 0.227 nmol/g | solubility at 2 min (Solubility study in PBS): < 0.9 mg/mL | Concentration of CR20274 in tumors (C2) ([5]; 0.25 h): 0.206 nmol/g | Concentration of CR20274 in tumors (C2) ([5]; 0.5 h): 0.222 nmol/g | Concentration of CR20274 in tumors (C2) ([5]; 1 h): 0.191 nmol/g | Concentration of CR20274 in tumors (C2) ([5]; 2 h): 0.180 nmol/g | Concentration of CR20274 in tumors (C2) ([5]; 4 h): 0.164 nmol/g | Concentration of CR20274 in tumors (C2) ([5]; 8 h): 0.154 nmol/g | Concentration of CR20274 in tumors (C2) ([5]; 24 h): 0.104 nmol/g | Concentration of CR20274 in tumors (C2) ([5]; 48 h): 0.064 nmol/g | Concentration of CR20274 in tumors (C2) ([5]; 72 h): 0.044 nmol/g | IC50 (NCI-H460): 0.314 µM | IC50 (PC-3): 0.103 µM | IC50 (A549): 0.124 µM | IC50 (HepG2): 0.107 µM
SMILES: CC[C@@H]1C(=O)N(C)c2cnc(Nc3ccc(-c4cn([C@H]5CC[C@@H](NCCOCCC#Cc6cccc7c6CN(C6CCC(=O)NC6=O)C7=O)CC5)nn4)cc3OC)nc2N1C1CCCC1 (some centres unmarked) [CR20274]
Mean tumor volume [2]: 2198.07 mm^3 | TGI [2]: −25.70% | Mean tumor volume [3]: 1274.47 mm^3 | TGI [3]: 31.55% | Anti-tumor effect [4]: no anti-tumor effect
